Assay results: US10532040B2, “Methods of treating cancer with herbacetin” (REGENTS OF THE UNIVERSITY OF MINNESOTA, priority 2011, dated 2020)
Entries after “also recorded” stand apart in the source; their conditions may differ.

How the values were obtained:
C57BL/6J-ApcMin+ mice = test: APCMin+ mouse colon cancer prevention pilot study, IP, 15 weeks; format: in vivo
Experimental: The anti-cancer effect of herbacetin in vivo has also been shown. Herbacetin prevents colon cancer development in […]57BL/6J-ApcMin+ were divided into […] and injected IP with vehicle or 1 of 2 amounts of herbacetin in vehicle. The doses included 0, 0.4, or 2 mg/kg B.W. herbacetin injected IP (n=15 total, 5 per group; Table 1). APC-min mice were 5 weeks old at the beginning of the study and received herbacetin for 15 weeks 5 days/week.

[1] = molecular target: T1, ODC (WT, D44A, D243A, E384A) (Homo sapiens, UniProt P11926, D44A); test: pull-down assay with ectopically expressed ODC mutants in HCT116 cells; format: binding; conditions: D44A mutant compared with D243A, E384A and WT
T1 construct: expressed in transfected cells; host or cells: HCT116 colon cancer cells
T1 sequence (P11926 1-461 D44A): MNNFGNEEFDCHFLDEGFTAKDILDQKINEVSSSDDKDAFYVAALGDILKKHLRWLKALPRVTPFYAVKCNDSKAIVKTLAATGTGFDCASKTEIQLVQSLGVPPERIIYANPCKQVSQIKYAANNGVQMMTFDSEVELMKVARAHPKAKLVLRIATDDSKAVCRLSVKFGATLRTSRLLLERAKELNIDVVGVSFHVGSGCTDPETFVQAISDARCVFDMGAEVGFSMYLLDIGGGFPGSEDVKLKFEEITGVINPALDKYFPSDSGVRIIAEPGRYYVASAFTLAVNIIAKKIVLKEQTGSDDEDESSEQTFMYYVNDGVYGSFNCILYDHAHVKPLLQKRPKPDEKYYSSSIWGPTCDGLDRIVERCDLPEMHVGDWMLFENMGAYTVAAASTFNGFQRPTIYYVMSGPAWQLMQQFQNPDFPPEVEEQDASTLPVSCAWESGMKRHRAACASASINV
Experimental: A recombinant human ODC protein (200 ng) or total cell lysates (500 μg) to were incubated with herbacetin Sepharose 4B (or Sepharose 4B only as a control) beads (50 μl, 50% slurry) in reaction buffer (50 mM Tris pH 7.5, 5 mM EDTA, 150 mM NaCl, 1 mM DTT, 0.01% NP40, 2 μg/mL bovine serum albumin). After incubation with gentle rocking overnight at 4° C., the beads were washed 5 times with buffer (50 mM Tris pH 7.5, 5 mM EDTA, 150 mM NaCl, 1 mM DTT, 0.01% NP40) and binding was determined by Western blotting.

ODC = molecular target: T2, ODC (Mus musculus, UniProt P00860); test: ODC activity in TPA-treated JB6 mouse skin epidermal cells; format: cell-based
T2 construct: endogenous in cells; host or cells: JB6 mouse skin epidermal cells, TPA-treated
T2 sequence (P00860 1-461): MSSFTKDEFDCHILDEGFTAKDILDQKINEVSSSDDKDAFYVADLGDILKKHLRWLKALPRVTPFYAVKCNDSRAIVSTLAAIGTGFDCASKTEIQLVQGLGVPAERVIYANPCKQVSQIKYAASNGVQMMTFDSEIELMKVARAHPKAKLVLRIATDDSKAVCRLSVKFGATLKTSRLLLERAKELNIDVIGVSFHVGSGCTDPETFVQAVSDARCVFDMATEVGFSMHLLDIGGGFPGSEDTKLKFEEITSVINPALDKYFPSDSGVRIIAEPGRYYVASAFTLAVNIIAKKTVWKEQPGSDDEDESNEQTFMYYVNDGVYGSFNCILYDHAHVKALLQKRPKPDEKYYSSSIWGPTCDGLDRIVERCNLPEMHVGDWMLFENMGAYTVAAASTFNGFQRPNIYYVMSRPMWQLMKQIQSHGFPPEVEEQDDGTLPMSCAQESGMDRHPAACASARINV
Experimental: (§1) ODC activity was measured as the release of CO2 from L-[1-C^14] ornithine as previously described ([…]).

[2] = molecular target: T1, ODC (WT, D44A, D243A, E384A); test: activity of ectopically expressed ODC (WT, D44A, D243A, E384A); format: cell-based; conditions: D44A vs D243A, E384A or wildtype ODC
Experimental: FIGS. 1A-1H. Herbacetin binds directly to ODC and inhibits ODC activity. (a) Chemical structure of herbacetin, a new allosteric ODC inhibitor. (b) Computer modeling of herbacetin and the ODC protein crystal structure. […] (c, upper panel) Recombinant ODC, (c, lower panel) HCT116 colon cancer cell lysate or (d) ectopically expressed ODC (WT, mutant D44A, D243A and E384A) cells were incubated with herbacetin-conjugated Sepharose 4B beads or with Sepharose 4B beads alone. Proteins were pulled down using anti-Xpress and then analyzed by Western blotting. The effect of herbacetin on ODC activity was assessed using a (e) recombinant ODC protein, (f) HCT116 colon cancer cells, or (g) TPA-treated JB6 mouse skin epidermal cells. (h) The effect of herbacetin on ectopically expressed ODC (WT, D44A, D243A, E384A) activity was measured as the release of CO2 from L-[1-C^14] ornithine. For e-h, data are represented as means±S.D. of values from triplicate experiments and the asterisk (*) indicates a significant difference (p<0.05) between herbacetin- or DFMO-treated samples compared to untreated controls. WB, Western blot.
as §1

JB6 epidermal cells = test: TPA-induced JB6 cell transformation; format: cell-based, mouse; conditions: 2 weeks
Experimental: FIGS. 3A-3H. Anticancer effect of herbacetin. (a) The effect of herbacetin on ODC activity in colon cancer cell lines was measured as the release of CO2 from L-[1-C^14] ornithine. […] (b) The effect of herbacetin and DFMO on the growth of colon cancer cells and (c) TPA-induced JB6 cell growth was compared. Cells were incubated for 72 h and growth was estimated using the MTS assay. (d) The effect of herbacetin on anchorage independent HCT116 colon cancer cell growth and (e) TPA-induced JB6 cell transformation was assessed. Cells were incubated for 2 weeks and then colonies were counted using a microscope and the Image-Pro PLUS (v.6) computer software program. The effect of herbacetin on AP-1 reporter activity in (f) HCT116 colon cancer cells and (g) TPA-induced AP-1 reporter activity in JB6 mouse epidermal cells was analyzed using the substrates included in the reporter assay system. Data are represented as means±S.D. of triplicate values from three independent experiments and the asterisk (*) indicates a significant (p<0.05) effect of herbacetin or DFMO compared to untreated or TPA-treated controls. (h) The effect of herbacetin on the phosphorylation of ERK1 and ERK2 in HCT116 colon cancer cells was determined by Western blotting. Similar results were observed from two independent experiments.

[3] = 0.4 or 2 mg/kg BW IP, 15 weeks, 5 days/week

## O=c1c(O)c(-c2ccc(O)cc2)oc2c(O)c(O)cc(O)c12 [herbacetin, 3,5,7,8,4′-Pentahydroxyflavone]
C57BL/6J-ApcMin+ mice; [3]
  colon tumor number: fewer
  colon tumor size: smaller
C57BL/6J-ApcMin+ mice; APCMin+ mice
  body weight: no effect
[1]
  binding affinity of ODC mutant with herbacetin: most reduced binding affinity
ODC
  suppression of ODC activity: markedly more effective than DFMO; also recorded: inhibit TPA-induced ODC1 activity
[2]
  susceptibility of ODC D44A mutant activity to herbacetin: less susceptible
JB6 epidermal cells
  TPA-induced neoplastic transformation of JB6 epidermal cells: markedly suppressed
